This is an account of results in patent publication US9353107B2 (Aurigene Discovery Technologies Limited, priority 2012, dated 2016).

The assay deals with T1, recombinant human ALK enzyme (ALK WT) (Homo sapiens, UniProt Q9UM73).
T1 construct: purchased Carna Biosciences 08-518
The experiment in a line: ALK WT cell free enzymatic assay (TR-FRET). Particulars: 1 μM ATP; for IC50: 10 point dose response; for inhibition at 1 µM: compound at 1 μM; for inhibition at 1 µM / inhibition at 0.1 µM: 30 min pre-incubation; for inhibition at 0.1 µM: compound at 100 nM. It counts as biochemical. The procedure:
ALK Wild Type (WT) The ALK WT cell free assay was set up to evaluate the effects of these compounds as inhibitors of ALK enzyme. The enzymatic assay was standardized using recombinant human ALK enzyme (Cat#08-518) from Carna Biosciences using Ultra Light Poly GT (Cat# TRF 0100D) from Perkin Elmer as a substrate. TR-FRET (Time resolved fluorescence resonance energy transfer) detection technology was used for the read out. The final assay conditions were 50 mM HEPES pH 7.1, 10 mM MgCl2, 2 mM MnCl2, 0.01% BSA, 2.5 mM DTT, 0.1 mM Na3 VO4, 40 nM Ultra Light Poly GT, 2.5 ng ALK WT enzyme, 1 μM ATP and 125 nM Lance Eu-W1024 labeled anti phospho tyrosine antibody (Cat# AD0203, Perkin Elmer) in 384 well format. The assay reaction time with the substrate was 30 minutes after which the antibody detection mix is added. The TR-FRET signal (Excitation at 340 nm, Emission at 615 nm and 665 nm) was read with 50 μs delay time on Victor^3 V fluorimeter. The data is calculated using the ratio of reading at 665 nM to 615 nM. The final concentration of DMSO was 1% in the assay. Compounds were screened at 100 nM and 1 μM concentrations with pre-incubation of the enzymes with compound for 30 minutes. Each individual IC50 was determined using 10 point dose response curve generated by GraphPad Prism software Version 4 (San Diego, Calif., USA) using non linear regression curve fit for sigmoidal dose response (variable slope). Percentage inhibition at concentrations of 100 nM and 1.0 μM are given in table along with the IC50 (nM) details for selected examples.
For orientation: TR-FRET usually uses a lanthanide donor and a delayed reading to cut background.

T1 sequence (Q9UM73 1058-1620 limits assumed): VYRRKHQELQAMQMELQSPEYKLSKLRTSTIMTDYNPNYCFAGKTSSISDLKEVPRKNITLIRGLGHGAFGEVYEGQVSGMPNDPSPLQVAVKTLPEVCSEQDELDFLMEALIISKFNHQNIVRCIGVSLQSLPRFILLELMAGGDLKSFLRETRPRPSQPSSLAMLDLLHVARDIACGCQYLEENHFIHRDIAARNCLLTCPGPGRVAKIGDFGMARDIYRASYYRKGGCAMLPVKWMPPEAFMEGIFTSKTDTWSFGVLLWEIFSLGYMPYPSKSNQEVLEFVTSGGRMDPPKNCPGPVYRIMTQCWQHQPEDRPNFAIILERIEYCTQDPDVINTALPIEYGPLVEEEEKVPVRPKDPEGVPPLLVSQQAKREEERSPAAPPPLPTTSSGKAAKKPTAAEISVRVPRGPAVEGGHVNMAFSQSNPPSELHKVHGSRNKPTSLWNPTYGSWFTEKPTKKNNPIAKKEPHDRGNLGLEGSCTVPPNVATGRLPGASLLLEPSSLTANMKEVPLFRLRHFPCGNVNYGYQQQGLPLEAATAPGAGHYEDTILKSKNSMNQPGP

A word on the IC50: it is the point on the concentration scale where inhibition reaches its midpoint. As a reminder, the inhibition is the percentage by which the read-out fell short of the control. For the molecule `CS(=O)(=O)Nc1cccc(-c2cnc3[nH]cc(-c4cnn(Cc5ccccc5F)c4)c3c2)c1` [Example 1, N-(3-(3-(1-(2-fluorobenzyl)-1H-pyrazol-4-yl)-1H-pyrrolo[2,3-b]pyridin-5-yl)phenyl)methanesulfonamide], the IC50 lay within 50 to 250 nM and the inhibition at 1 µM stood at 92%.

As to `CS(=O)(=O)Nc1cccc(-c2cnc3[nH]cc(-c4cnn(Cc5cccc(C(F)(F)F)c5)c4)c3c2)c1` [Example 2, N-(3-(3-(1-(3-(trifluoromethyl)benzyl)-1H-pyrazol-4-yl)-1H-pyrrolo[2,3-b]pyridin-5-yl)phenyl) methanesulfonamide], the IC50 is > 250 nM and the inhibition at 1 µM worked out at 33%.

Regarding `COc1ccc(Cn2cc(-c3c[nH]c4ncc(-c5cccc(NS(C)(=O)=O)c5)cc34)cn2)cc1` [Example 3, N-(3-(3-(1-(4-methoxybenzyl)-1H-pyrazol-4-yl)-1H-pyrrolo[2,3-b]pyridin-5-yl)phenyl)n methane sulfonamide], the IC50 was > 250 nM and the inhibition at 1 µM amounted to 65%.

Consider `CS(=O)(=O)Nc1cccc(-c2cnc3[nH]cc(-c4cnn(Cc5cc(F)ccc5F)c4)c3c2)c1` [Example 4, N-(3-(3-(1-(2,5-difluorobenzyl)-1H-pyrazol-4-yl)-1H-pyrrolo[2,3-b]pyridin-5-yl)phenyl)methane sulfonamide], for which the IC50 lay in the range of 50 to 250 nM and the inhibition at 1 µM was determined as 95%.

As for `CS(=O)(=O)Nc1cccc(-c2cnc3[nH]cc(-c4cnn(Cc5ccc(F)cc5)c4)c3c2)c1` [Example 5, N-(3-(3-(1-(4-fluorobenzyl)-1H-pyrazol-4-yl)-1H-pyrrolo[2,3-b]pyridin-5-yl)phenyl) methanesulfonamide], the IC50 was in the range of 50 to 250 nM and the inhibition at 1 µM came out at 69%.

As to `CS(=O)(=O)Nc1cccc(-c2cnc3[nH]cc(-c4cnn(Cc5cc(F)cc(F)c5)c4)c3c2)c1` [Example 6, N-(3-(3-(1-(3,5-difluorobenzyl)-1H-pyrazol-4-yl)-1H-pyrrolo[2,3-b]pyridin-5-yl)phenyl) methane sulfonamide], the IC50 is < 50 nM and the inhibition at 1 µM was 99%.

For the molecule `CS(=O)(=O)Nc1cccc(-c2cnc3[nH]cc(-c4cnn(Cc5cccc([N+](=O)[O-])c5)c4)c3c2)c1` [Example 7, N-(3-(3-(1-(3-nitrobenzyl)-1H-pyrazol-4-yl)-1H-pyrrolo[2,3-b]pyridin-5-yl)phenyl)methane sulfonamide], the inhibition at 0.1 µM was determined as 20% and the inhibition at 1 µM amounted to 53%.

In the case of `CS(=O)(=O)Nc1cccc(-c2cnc3[nH]cc(-c4cnn(Cc5cccc(N)c5)c4)c3c2)c1` [Example 8, N-(3-(3-(1-(3-aminobenzyl)-1H-pyrazol-4-yl)-1H-pyrrolo[2,3-b]pyridin-5-yl)phenyl) methane sulfonamide], the IC50 was < 50 nM, the inhibition at 0.1 µM is 81% and the inhibition at 1 µM turned out to be 97%.

For the molecule `CS(=O)(=O)Nc1cccc(-c2cnc3[nH]cc(-c4cnn(Cc5cccc(F)c5)c4)c3c2)c1` [Example 9, N-(3-(3-(1-(3-fluorobenzyl)-1H-pyrazol-4-yl)-1H-pyrrolo[2,3-b]pyridin-5-yl)phenyl)methanesulfonamide], the IC50 was < 50 nM and the inhibition at 1 µM turned out to be 98%.

With `CS(=O)(=O)Nc1cccc(-c2cnc3[nH]cc(-c4cnn(Cc5cccc(Cl)c5)c4)c3c2)c1` [Example 10, N-(3-(3-(1-(3-chlorobenzyl)-1H-pyrazol-4-yl)-1H-pyrrolo[2,3-b]pyridin-5-yl)phenyl)methane sulfonamide], the IC50 was 50 to 250 nM and the inhibition at 1 µM was found to be 81%.

For `CS(=O)(=O)Nc1cccc(-c2cnc3[nH]cc(-c4cnn(Cc5cccc(C#N)c5)c4)c3c2)c1` [Example 11, N-(3-(3-(1-(3-cyanobenzyl)-1H-pyrazol-4-yl)-1H-pyrrolo[2,3-b]pyridin-5-yl)phenyl)methane sulfonamide], the IC50 is < 50 nM, the inhibition at 0.1 µM was found to be 64% and the inhibition at 1 µM turned out to be 90%.

`CS(=O)(=O)Nc1cccc(-c2cnc3[nH]cc(-c4cnn(Cc5ccccc5)c4)c3c2)c1` [Example 12, N-(3-(3-(1-benzyl-1H-pyrazol-4-yl)-1H-pyrrolo[2,3-b]pyridin-5-yl)phenyl) methanesulfonamide]: the IC50 is > 250 nM and the inhibition at 1 µM came to 87%.

On to `COc1ccc(-c2cnc3[nH]cc(-c4cnn(Cc5cccc(F)c5)c4)c3c2)cc1NS(C)(=O)=O` [Example 13, N-(5-(3-(1-(3-fluorobenzyl)-1H-pyrazol-4-yl)-1H-pyrrolo[2,3-b]pyridin-5-yl)-2-methoxyphenyl) methane sulfonamide], for which the IC50 is < 50 nM and the inhibition at 1 µM came out at 96%.

As to `COc1ccc(-c2cnc3[nH]cc(-c4c(C)nn(Cc5cccc(F)c5)c4C)c3c2)cc1NS(C)(=O)=O` [Example 14, N-(5-(3-(1-(3-fluorobenzyl)-3,5-dimethyl-1H-pyrazol-4-yl)-1H-pyrrolo[2,3-b]pyridin-5-yl)-2-methoxyphenyl)methanesulfonamide], the concentration for half-maximal inhibition (IC50) was < 50 nM and the inhibition at 1 µM worked out at 95%.

Consider `CCS(=O)(=O)Nc1cc(-c2cnc3[nH]cc(-c4c(C)nn(Cc5cccc(F)c5)c4C)c3c2)ccc1OC` [Example 15, N-(5-(3-(1-(3-fluorobenzyl)-3,5-dimethyl-1H-pyrazol-4-yl)-1H-pyrrolo[2,3-b]pyridin-5-yl)-2-methoxyphenyl)ethanesulfonamide], for which the inhibition at 0.1 µM was determined as 33% and the inhibition at 1 µM came to 75%.

With `COc1ccc(-c2cnc3[nH]cc(-c4cnn(Cc5cccc(F)c5)c4)c3c2)cc1NS(=O)(=O)C1CC1` [Example 16, N-(5-(3-(1-(3-fluorobenzyl)-1H-pyrazol-4-yl)-1H-pyrrolo[2,3-b]pyridin-5-yl)-2-methoxyphenyl)cyclopropanesulfonamide], the inhibition at 0.1 µM was found to be 33% and the inhibition at 1 µM came to 66%.

Turning to `CS(=O)(=O)Nc1cc(-c2cnc3[nH]cc(-c4cnn(Cc5cccc(F)c5)c4)c3c2)ccc1N1CCOCC1` [Example 17, N-(5-(3-(1-(3-fluorobenzyl)-1H-pyrazol-4-yl)-1H-pyrrolo[2,3-b]pyridin-5-yl)-2-morpholinophenyl)methanesulfonamide], the inhibition at 0.1 µM was 13% and the inhibition at 1 µM stood at 53%.

For `CNS(=O)(=O)c1cc(-c2cnc3[nH]cc(-c4c(C)nn(Cc5cccc(F)c5)c4C)c3c2)ccc1OC` [Example 18, 5-(3-(1-(3-fluorobenzyl)-3,5-dimethyl-1H-pyrazol-4-yl)-1H-pyrrolo[2,3-b]pyridin-5-yl)-2-methoxy-N-methylbenzenesulfonamide], the IC50 is 50 to 250 nM, the inhibition at 0.1 µM worked out at 62% and the inhibition at 1 µM amounted to 94%.

With `COc1ccc(-c2cnc3[nH]cc(-c4c(C)nn(Cc5cc(F)cc(F)c5)c4C)c3c2)cc1NS(C)(=O)=O` [Example 19], the IC50 lay in the range of 50 to 250 nM, the inhibition at 0.1 µM is 63% and the inhibition at 1 µM amounted to 96%.

As for `CNS(=O)(=O)c1cc(-c2cnc3[nH]cc(-c4c(C)nn(Cc5cc(F)ccc5F)c4C)c3c2)ccc1OC` [Example 20, 5-(3-(1-(2,5-difluorobenzyl)-3,5-dimethyl-1H-pyrazol-4-yl)-1H-pyrrolo[2,3-b]pyridin-5-yl)-2-methoxy-N-methylbenzenesulfonamide], the IC50 was > 250 nM, the inhibition at 0.1 µM stood at 17% and the inhibition at 1 µM turned out to be 75%.

As to `CNS(=O)(=O)c1cc(-c2cnc3[nH]cc(-c4c(C)nn(Cc5cc(F)cc(F)c5)c4C)c3c2)ccc1OC` [Example 21, (3-(1-(3,5-difluorobenzyl)-3,5-dimethyl-1H-pyrazol-4-yl)-1H-pyrrolo[2,3-b]pyridin-5-yl)-2-methoxy-N-methylbenzenesulfonamide], the IC50 was < 50 nM, the inhibition at 0.1 µM came out at 82% and the inhibition at 1 µM is 96%.

Consider `COc1ccc(-c2cnc3[nH]cc(-c4c(C)nn(Cc5cc(F)ccc5F)c4C)c3c2)cc1NS(C)(=O)=O` [Example 22, N-(5-(3-(1-(2,5-difluorobenzyl)-3,5-dimethyl-1H-pyrazol-4-yl)-1H-pyrrolo[2,3-b]pyridin-5-yl)-2-methoxyphenyl)methanesulfonamide], for which the IC50 was < 50 nM, the inhibition at 0.1 µM is 62% and the inhibition at 1 µM came to 87%.

On to `Cc1nn(Cc2cccc(F)c2)c(C)c1-c1c[nH]c2ncc(-c3ccc(OCCN(C)C)c(NS(C)(=O)=O)c3)cc12` [Example 23, N-(2-(2-(dimethylamino)ethoxy)-5-(3-(1-(3-fluorobenzyl)-3,5-dimethyl-1H-pyrazol-4-yl)-1H-pyrrolo[2,3-b]pyridin-5-yl)phenyl)methanesulfonamide], for which the IC50 is 50 to 250 nM, the inhibition at 0.1 µM stood at 73% and the inhibition at 1 µM turned out to be 99%.
